Results on 5 molecules are retold here after US10383871B2, “Azetidine derivatives” (Vernalis (R&D) Ltd, priority 2008, dated 2019).

Each structure is given as a SMILES string.

This data set can be described thus: Plasma concentrations after oral administration in laboratory rats. The data set is classed as in vivo, rat.

For the molecule `O=C(Nc1cccnc1)N1CC(Oc2ccc(-c3ccccc3)cc2)C1` [Example 4, 3-(Biphenyl-4-yloxy)-azetidine-1-carboxylic acid pyridin-3-ylamide], the “plasma concentrations after oral administration” value (“plasma concentrations” below) was “high and prolonged plasma concentrations”.

In the case of `COCCOc1cccc(-c2ccc(OC3CN(C(=O)Nc4cccnn4)C3)nc2)c1` [Example 7, 3-{5-[3-(2-Methoxy-ethoxy)-phenyl]-pyridin-2-yloxy}-azetidine-1-carboxylic acid pyridazin-3-ylamide], the “plasma concentrations” value is “high and prolonged plasma concentrations”.

For `O=C(Nc1cccnn1)N1CC(Oc2ccc(-c3ccccc3)cn2)C1` [Example 13, 3-(5-Phenyl-pyridin-2-yloxy)-azetidine-1-carboxylic acid pyridazin-3-ylamide], the “plasma concentrations” value was “high and prolonged plasma concentrations”.

As to `COc1ccccc1-c1ccc(OC2CN(C(=O)Nc3cccnn3)C2)nc1` [Example 17, 3-[5-(2-Methoxy-phenyl)-pyridin-2-yloxy]-azetidine-1-carboxylic acid pyridazin-3-ylamine], the “plasma concentrations” value was “high and prolonged plasma concentrations”. The result for `O=C(Nc1cccnn1)N1CC(Oc2ccc(-c3ccccc3F)cn2)C1` [Example 18, 3-[5-(2-Fluoro-phenyl)-pyridin-2-yloxy]-azetidine-1-carboxylic acid pyridazin-3-ylamide] reads “high and prolonged plasma concentrations”.
